Structures can show the parent of a compound that is named as a salt. Where two headings read alike, the source gives them in different places.
What was measured:
rat paw edema = assay: Rat Paw Edema Assay (carrageenan), edema inhibition; assay type: in vivo, Male Sprague-Dawley rats; details: po 1 hr before carrageenan, paw volume at 3 hr
Experimental: Rat Paw Edema Assay-Protocol
Male Sprague-Dawley rats (150-200 g) are fasted overnight and are given po either vehicle (1% methocel or 5% Tween 80) or a test compound. One hr later, a line is drawn using a permanent marker at the level above the ankle in one hind paw to define the area of the paw to be monitored. The paw volume (V0) is measured using a plethysmometer (Ugo-Basile, Italy) based on the principle of water displacement. The animals are then injected subplantarly with […] of 1% carrageenan solution in saline (FMC Corp, Maine) into the paw using an insulin syringe with a 25-gauge needle (i.e., […] carrageenan per paw). Three hr later, the paw volume (V3) is measured and the increases in paw volume (V3 -V0) are calculated. The animals are sacrificed by CO2 asphyxiation and the absence or presence of stomach lesions scored. Data is compared with the vehicle-control values and percent inhibition calculated. All treatment groups are coded to eliminate observer bias.

[1] = biological target: T1, cyclooxygenase-1 (human U-937 cells) (Homo sapiens, UniProt P23219); assay: Inhibition of cyclooxygenase-1: PGE2 production in human U-937 cells, whole cell assay; assay type: cell-based; details: PGE2 synthesis in response to arachidonic acid, read-out: Cox-1 IC50
T1 construct: human U-937 cells (which specifically express cyclooxygenase-1); endogenous in cells; host or cells: human U-937 cells

[2] = biological target: T2, cyclooxygenase-2 (human osteosarcoma 143 cells) (Homo sapiens, UniProt P35354); assay: Inhibition of cyclooxygenase-2: PGE2 production in human osteosarcoma 143 cells, whole cell assay; assay type: cell-based
T2 construct: human osteosarcoma 143 cells (which specifically express cyclooxygenase-2); endogenous in cells; host or cells: human osteosarcoma 143 cells
T2 sequence (P35354 18-604): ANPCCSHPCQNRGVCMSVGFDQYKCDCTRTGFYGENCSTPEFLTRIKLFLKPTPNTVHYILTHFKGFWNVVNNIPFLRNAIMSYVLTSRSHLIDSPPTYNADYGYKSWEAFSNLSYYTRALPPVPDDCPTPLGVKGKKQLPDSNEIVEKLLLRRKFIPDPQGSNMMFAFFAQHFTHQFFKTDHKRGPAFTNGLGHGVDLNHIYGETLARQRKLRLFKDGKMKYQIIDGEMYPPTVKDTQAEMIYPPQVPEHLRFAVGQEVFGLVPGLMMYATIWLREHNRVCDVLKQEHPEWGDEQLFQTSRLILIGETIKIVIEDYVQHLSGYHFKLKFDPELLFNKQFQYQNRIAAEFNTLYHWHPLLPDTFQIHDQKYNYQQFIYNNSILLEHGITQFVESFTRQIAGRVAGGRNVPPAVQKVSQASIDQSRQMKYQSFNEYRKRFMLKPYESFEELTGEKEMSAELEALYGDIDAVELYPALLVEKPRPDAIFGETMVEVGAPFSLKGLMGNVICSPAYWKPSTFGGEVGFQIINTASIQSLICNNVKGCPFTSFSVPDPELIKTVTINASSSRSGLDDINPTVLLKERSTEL

[3] = human osteosarcoma 143 cells, whole cell, PGE2 synthesis in response to arachidonic acid, read-out: Cox-2 IC50

T1 sequence (P23219 24-599): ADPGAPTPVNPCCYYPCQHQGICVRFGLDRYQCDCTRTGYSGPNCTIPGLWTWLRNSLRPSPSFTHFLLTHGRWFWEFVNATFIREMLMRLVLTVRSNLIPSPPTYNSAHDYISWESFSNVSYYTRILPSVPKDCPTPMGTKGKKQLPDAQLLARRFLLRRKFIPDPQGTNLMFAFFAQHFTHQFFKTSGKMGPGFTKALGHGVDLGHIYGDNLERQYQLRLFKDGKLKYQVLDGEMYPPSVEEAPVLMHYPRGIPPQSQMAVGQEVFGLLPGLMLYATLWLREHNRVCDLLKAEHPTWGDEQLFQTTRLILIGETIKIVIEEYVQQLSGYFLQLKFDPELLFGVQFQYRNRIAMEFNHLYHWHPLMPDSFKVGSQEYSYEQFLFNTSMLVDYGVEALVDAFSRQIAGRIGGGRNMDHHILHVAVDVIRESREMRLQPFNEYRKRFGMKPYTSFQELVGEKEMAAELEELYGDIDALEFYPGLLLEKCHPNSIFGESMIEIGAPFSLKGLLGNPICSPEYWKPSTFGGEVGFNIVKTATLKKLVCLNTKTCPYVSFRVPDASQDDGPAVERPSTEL

IC50 [1] [nM] | IC50 [2, 3] [nM] | IC50 [2] [nM] | SMILES | ED30 (rat paw edema) [mg/kg]
> 10000 | 5 | – | Cc1c(CC(C)CC(=O)O)c2cc(Cl)ccc2n1Cc1ccc(Br)cc1 (racemic) [Example 34, 4-[1-(4-Bromobenzyl)-5-chloro-2-methyl-1 H-indol-3-yl]-3-methyl-butanoic acid] | 0.51
> 100000 | – | 16 | COc1ccc2c(c1)c(CC1(CC(=O)O)CC1)c(C)n2Cc1ccc(Br)cc1 [Example 2, [4-(1-(4-Bromobenzyl) -5-methoxy-2-methyl-1 H-indol-3-yl) -3-(ethane-1,2-diyl)]butanoic acid, sodium salt] | 0.54
> 10000 | 6 | – | COc1ccc2c(c1)c(CCCC(=O)O)c(C)n2Cc1ccc(Br)cc1 [Example 4, 4-(1-(4-Bromobenzyl)-5-methoxy-2-methyl-1H-indol-3-yl)butanoic acid] | 1.2
> 10000 | – | – | COc1ccc2c(c1)c(C[C@@H](C)CC(=O)O)c(C)n2Cc1ccc(Br)cc1 [Example 8, (3R) 4-(1-(4-Bromobenzyl)-5-methoxy-2-methyl-1H-indol-3-yl)-3-methylbutanoic ac id] | 0.6
> 50000 | 6 | – | Cc1c(CCCC(=O)O)c2cc(Br)ccc2n1Cc1ccc(Br)cc1 [Example 24, 4-[5-Bromo-1-(4-bromobenzyl)-2-methyl-1H-indol-3-yl]butanoic acid] | ~3
> 25000 | 9 | – | COc1ccc2c(c1)c(CC1(CC(=O)O)CC1)c(C)n2Cc1ccc(Cl)cc1 [Example 25, 4-[1-(4-Chlorobenzyl)-5-methoxy-2-methyl-1H-indol-3-yl]-3-(ethane-1,2-diyl)butanoic acid] | > 3
– | – | – | COc1ccc2c(c1)c(CC(=O)O)c(C)n2C(=O)c1ccc(Cl)cc1 [Indomethacin, reference compound] | 0.9
– | – | – | COc1ccc2c(c1)c(C(C)C(=O)O)c(C)n2Cc1ccc(Cl)cc1 (stereo not shown) [MK-555, a-(1-p-chlorobenzyl-2-methyl-5-methoxy-3-indolyl)propionic acid, reference compound] | 3

Source: US5639780A, “N-benzyl indol-3-yl butanoic acid derivatives as cyclooxygenase inhibitors” (priority 1995, dated 1997)
